# Measured values reported in PMC2707755 (Organic letters, 2009).
# Where two headings read alike, the source gives them in different places.
# Assays:
# PP-1 [1] = details: cited from earlier work
# PP-2A [2] = details: read-out: IC50 PP-2A; cited from earlier work
# A549 lung adenocarcinoma = assay: cytotoxicity against A549 lung adenocarcinoma cell line; assay type: cell-based; details: read-out: cytotoxicity IC50, A549; A549 lung adenocarcinoma
# Du145 colon carcinoma = assay: cytotoxicity against Du145 colon carcinoma cell line; assay type: cell-based; details: read-out: cytotoxicity IC50, Du145
# [3] = system: HT29 colon adenocarcinoma; assay: cytotoxicity against HT29 colon adenocarcinoma cell line; assay type: cell-based; details: read-out: cytotoxicity IC50, HT29; HT29 colon adenocarcinoma
# MCF7 breast carcinoma = assay: cytotoxicity against MCF7 breast carcinoma cell line; assay type: cell-based; details: read-out: cytotoxicity IC50, MCF7; MCF7 breast carcinoma
# PP-1 [4] = assay: PP inhibition assay, PP-1; assay type: biochemical; details: triplicate
# PP-2A [5] = assay: PP inhibition assay, PP-2A; assay type: biochemical; details: triplicate
# [6] = cytotoxicity against A549 lung adenocarcinoma cell line; assay type: cell-based; details: human, A549 lung adenocarcinoma cells
# [7] = cytotoxicity against HT29 colon adenocarcinoma cell line; assay type: cell-based; details: human, HT29 colon adenocarcinoma cells
# [8] = cytotoxicity against MCF7 breast carcinoma cell line; assay type: cell-based; details: human, MCF7 breast carcinoma cells
# [9] = read-out: IC50 PP-1, pH 7.5, pH 7.5
# [10] = read-out: IC50 PP-1, pH 8.4, pH 8.4
compound,measurement,setting,value
tautomycetin [compound 2],higher affinity for PP-1 than for PP-2A,PP-1 [1]; PP-1 over PP-2A,~40 fold
same,IC50,PP-1 [1]; read-out: IC50 PP-1,1.6 nM
same,IC50,PP-2A [2],62 nM
C3′ epi-TTM,less effective at PP-1 inhibition than 1,PP-1 [1]; relative to 1,~ 1000 fold
3′-deshydroxy-TTM [compound 3],IC50,A549 lung adenocarcinoma,26600 ± 6400 nM
same,IC50,Du145 colon carcinoma,4240 ± 110 nM
same,IC50,[3],7350 ± 190 nM
same,IC50,MCF7 breast carcinoma,15600 ± 900 nM
same,IC50,PP-1 [4]; [9],470 nM
same,IC50,PP-1 [4]; [10],677 nM
same,IC50,"PP-2A [5]; read-out: IC50 PP-2A, pH 7.5",15600 nM
same,IC50,"PP-2A [5]; read-out: IC50 PP-2A, pH 8.4",15300 nM
"CO[C@H]([C@H](O)CC(=O)[C@@H](C)[C@@H](O)CC[C@@H](C)[C@@H]1O[C@]2(CC[C@@H](C)[C@H](CC[C@H](C)C(C)=O)O2)CC[C@@H]1C)[C@H](OC(=O)C[C@@H](O)C1=C(C)C(=O)OC1=O)C(C)C [compound 1, Tautomycin, reference compound]",IC50,[6],1660 ± 140 nM
same,IC50,[7],590 ± 10 nM
same,IC50,[8],1800 ± 120 nM
same,IC50,PP-1 [4]; [9],0.58 nM
same,IC50,PP-1 [4]; [10],0.86 nM
same,IC50,"PP-2A [5]; read-out: IC50 PP-2A, pH 7.5",15 nM
same,IC50,"PP-2A [5]; read-out: IC50 PP-2A, pH 8.4",42.6 nM
